Read-outs that look alike come from different tables or passages of the source.
Assays:
[1] = tested on: GLP-1 secretion; assay: GLP-1 secretion assay (Table 5; cell line not stated); assay type: cell-based
Method: The GLP-1 secretion assay identifies compounds that stimulate secretion of glucagonlikepeptide one (GLP-1) in mouse and human cell lines derived from gastrointestinal tract tissue. GLP-1 secretion is measured using an ELISA designed to detect the appropriate forms of GLP-1 secreted from these cells. If active in the cell-based GLP-1 assay, molecules can be further tested for selectivity in assays that measure activation of G-protein-coupled receptors (GPCRs) known to stimulate GLP-1 secretion. See, for example, “Glucagon-Like Peptide 1-Based Therapies for Type 2 Diabetes: A Focus on Exenatide,” Kathleen Dungan and John B. Buse; Clinical Diabetes 29 (1), (Winter 2011); and “Glucagon-Like Peptide 1 Secretion by the L-Cell,” Gareth E. Kim and Patricia L. Brubaker; Diabetes: 55 (supplement 2), (December, 2006).
The GLP-1 secretion, diabetes phenotypic testing identifies compounds that stimulate secretion of glucagon-like peptide one (GLP-1) in mouse and human cell lines derived from gastrointestinal tract tissue. GLP-1 secretion is measured using an Eli Lilly & Company (Indianapolis, Ind., USA) proprietary ELISA assay that was specifically designed to detect the appropriate forms of GLP-1 secreted from these cells. (Eli Lilly operates a program known Open Innovation Drug Discovery that performs such testing. See https://openinnovation.lilly.com/dd/.) If active in the cell-based GLP-1 assay, molecules are further tested for selectivity in assays that measure activation of GPCRs known to stimulate GLP-1 secretion. See Glucagon-Like Peptide 1-Based Therapies for Type 2 Diabetes: A Focus on Exenatide; Kathleen Dungan and John B. Buse; Clinical Diabetes: 29 (1), (Winter 2011); and Glucagon-Like Peptide 1 Secretion by the L-Cell; Gareth E. Kim and Patricia L. Brubaker; Diabetes: 55 (supplement 2), (December, 2006).

[2] = molecular target: AhR (Homo sapiens (Human), UniProt P35869); assay: ethoxyresorufin-O-deethylase (EROD) assay, AhR activation (CYP1A1 induction); assay type: cell-based; settings: for increase of signal over DMSO treatment: at 10 nM concentration, data not shown
Method: The human Hep G2 cell line from the Small Molecule Screening and Synthesis Facility (UWCCC, Madison, Wis.) and was maintained in DMEM medium supplemented with 10% FBS. Cells were incubated at 37° C. in a humidified atmosphere supplemented with 5% CO2.
Preparation of cells: Cells were cleaved from T75 flasks with 0.05% trypsin. The cells were then collected by spinning at 1 g for 4 min. Excess media containing trypsin was removed from the pellet, which was then re-suspended in growth media. The cells were then counted using a hemocytometer. Cells were plated in sterile 96-well clear bottom black culture plates at a density of 20,000 cells per well in 0.1 mL of media. The cells were then incubated for 24 h at 37° C. in a humidified atmosphere supplemented with 5% CO2.
The ethoxyresorufin-O-deethylase (EROD) assay was performed on cell cultures of human Hep G2 cells. Briefly, 24 h after plating, cells in 96-well plates were treated with AhR agonists and allowed to incubate for 24 h. Each well was then rinsed with 200 uL of PBS buffer twice. To each well was then added 100 uL of 150 nM solution of 7-ethoxyresurufin and allowed to incubate for 2 h. Fluorescence measurements were obtained with a Safire II micro plate reader with excitation at 520 nm with a 25 nm bandwidth and emission at 595 nm with a 20 nm bandwidth.
The bioactivity of malassezin analogs was then investigated. The well-documented ethoxyresorufin-O-deethylase (EROD) assay was used to determine the EC50 values of the compounds towards AhR activation in HepG2 cells. Donato, M. T.; Gomezlechon, M. J.; Castell, J. V. Anal. Biochem. 1993, 213, 29; van Tonder, J. J., University of Pretoria Z. A., Thesis, 2011. This assay measures the induction of cytochrome P450-1A1 (CYP1A1), which is a major outcome of AhR activation. Whyte, J. J.; Jung, R. E.; Schmitt, C. J.; Tillitt, D. E. Crit. Rev. Toxicol. 2000, 30, 347. CYP1A1 selectively converts 7-ethoxyresorufin to the fluorescent product resorufin.

[3] = tested on: secreted PCSK9 in HepG2 cells; assay: PCSK9 inhibition assay (AlphaLISA, secreted PCSK9); assay type: cell-based; settings: Homo sapiens, Table 5
From the text: PCSK9 expression is actively regulated at transcription levels. Statins are known to stimulate PCSK9 transcription which in turn curbs the efficacy of statins in LDL lowering in humans. […] The PCSK9 SI phenotypic assay is designed to identify compounds that inhibit synthesis of PCSK9 in human hepatoma cell lines (HepG2). See, for example, Horton, J. D., Cohen, J. C., and Hobbs, H. H., “PCSK9: a convertase that coordinates LDL catabolism,” J. Lipid Res. 50 Suppl, S172-177, (2009); Crunkhorn, S. “Trial watch: PCSK9 antibody reduces LDL cholesterol,” Nat Rev Drug Discov 11, 11, (2012); Vogel, R. A., “PCSK9 inhibition: the next statin,” J Am Coll Cardiol 59, 2354-2355, (2012); Li, H., Dong, B., Park, S. W., Lee, H. S., Chen, W., and Liu, J., “Hepatocyte nuclear factor 1alpha plays a critical role in PCSK9 gene transcription and regulation by the natural hypocholesterolemic compound berberine,” J Biol Chem 284, 28885-28895, (2009); and Cao, A., Wu, M., Li, H., and Liu, J., “Janus Kinase activation by cytokine oncostatin M decreases PCSK9 expression in liver cells,” J Lipid Res 52, 518-530, (2011).
Inhibition of secreted PCSK9 was measured in human hepatocellular carcinoma (HepG2) cells using an “AlphaLISA”®-brand assay. Given that this assay is run in an inhibition mode, the viability of cells was also assessed to rule out compounds whose PCSK9 inhibition resulted from deleterious effects on cell health. Freshly cultured HepG2 cells were harvested from poly-d-lysine-coated T225 cell culture flasks and plated in biocoat poly-d-lysine coated 384 black with clear bottom microtiter plates (BD BioCoat #356663; Becton, Dickinson and Company, Franklin Lakes, N.J., USA) at 20,000 cells/well in 60 ul of growth media (MEM+10% heat inactivated FBS+1% NEAA+1% sodium pyruvate+1% GlutaMAX). Cell plates were incubated overnight at 37° C. and 5% CO2 prior to compound treatment.
Compounds were serially diluted 3-fold in 100% DMSO to achieve a starting final assay plate concentration of 50 uM following a 20-fold dilution in assay media (MEM+5% heat inactivated FBS+1% NEAA+1% sodium pyruvate+1% GlutaMAX) and a 10-fold dilution into the cell plates. While the compounds were diluting, the cell plates were washed twice with 75 ul of assay media and refilled with 45 ul of assay media. The cell plates were incubated for 48 hrs at 37° C. and 5% CO2 prior to running the “AlphaLISA”®-brand assay. The “AlphaLISA”® bead mix was assembled in water and left to incubate 1 hr in the dark prior to use (1× “AlphaLISA”® buffer, 5 mg/ml mAb-PCSK9-A4 conjugated acceptor beads, 3.4 uM bioti-mAb-anti-PCSK9-B9, 5 mg/ml streptavidin-coated donor beads). […] In the dark, 5 ul of the bead mix was added to the ProxiPlates, and then the plates were left to incubate at ambient temperature in the dark overnight before being read on an Envision (excitation 680 nm and emission 615 nm). […] The plates were removed from the incubator, sealed with black tape, and read for propidium iodide stained nuclei using an Acumen-brand cell imaging system (TTP Labtech Ltd., Melbourn, Hertfordshire United Kingdom). Percent inhibitions at all concentrations tested were calculated relative to 0.5% DMSO (min effect), and the effect of 50 uM of a fully efficacious PCSK9 inhibitor for the PCSK9 inhibition assay (max effect), or 50 uM Brefeldin A for the viability assay (max effect). IC50 values were calculated using a 4 parameter logistic curve fitting equation.

[4] = in human; cited from earlier work
[5] = tested on: IL-17 secretion from human peripheral blood mononuclear cells (PBMCs); assay: IL-17 phenotypic assay; assay type: cell-based; settings: PBMC, Table 5, read-out: IL17, IC50
From the text: The IL-17 phenotypic assay seeks to identify inhibitors of IL-17 secretion from human peripheral blood mononuclear cells (PBMCs) following stimulation of memory T cells by IL-23, anti-CD3, and anti-CD28. Compounds of interest will inhibit IL-17. See W. Ouyang, J. K. Kolls, V. Zheng, “The biological functions of T helper 17 cell effector cytokines in inflammation,” Immunity, 28, 454-467 (2008); I. I. Ivanov, L. Zhou, D. R. Littman, “Transcriptional regulation of Th17 cell differentiation,” Semin Immunol, 19, 409-417 (2007); N. Mane I, D. Unutmaz, D. R. Littman, “The differentiation of human T(H)-17 cells requires transforming growth factor-beta and induction of the nuclear receptor RORgammat,” Nat Immunol, 9, 641-649 (2008); and M. Ciofani, A. Madar, C. Galan, M. Sellars, K. Mace, F. Pauli, A. Agarwal, W. Huang, C. N. Parkurst, M. Muratet, K. M. Newberry, S. Meadows, A. Greenfield, V. Vang, P. Jain, F. K. Kirigin, C. Birchmeier, E. F. Wagner, K. M. Murphy, R. M. Myers, R. Bonneau, D. R. Littman, “A validated regulatory network for Th17 cell specification.” Cell, 151, 289-303 (2012).

[6] = tested on: IL5; assay: IL5 assay (Table 5); assay type: cell-based
[7] = EROD assay, HepG2 cells, 24 h treatment, read-out: EC50 (AhR Activity of Diindolylmethanes)

AhR, sequence (P35869 11-848): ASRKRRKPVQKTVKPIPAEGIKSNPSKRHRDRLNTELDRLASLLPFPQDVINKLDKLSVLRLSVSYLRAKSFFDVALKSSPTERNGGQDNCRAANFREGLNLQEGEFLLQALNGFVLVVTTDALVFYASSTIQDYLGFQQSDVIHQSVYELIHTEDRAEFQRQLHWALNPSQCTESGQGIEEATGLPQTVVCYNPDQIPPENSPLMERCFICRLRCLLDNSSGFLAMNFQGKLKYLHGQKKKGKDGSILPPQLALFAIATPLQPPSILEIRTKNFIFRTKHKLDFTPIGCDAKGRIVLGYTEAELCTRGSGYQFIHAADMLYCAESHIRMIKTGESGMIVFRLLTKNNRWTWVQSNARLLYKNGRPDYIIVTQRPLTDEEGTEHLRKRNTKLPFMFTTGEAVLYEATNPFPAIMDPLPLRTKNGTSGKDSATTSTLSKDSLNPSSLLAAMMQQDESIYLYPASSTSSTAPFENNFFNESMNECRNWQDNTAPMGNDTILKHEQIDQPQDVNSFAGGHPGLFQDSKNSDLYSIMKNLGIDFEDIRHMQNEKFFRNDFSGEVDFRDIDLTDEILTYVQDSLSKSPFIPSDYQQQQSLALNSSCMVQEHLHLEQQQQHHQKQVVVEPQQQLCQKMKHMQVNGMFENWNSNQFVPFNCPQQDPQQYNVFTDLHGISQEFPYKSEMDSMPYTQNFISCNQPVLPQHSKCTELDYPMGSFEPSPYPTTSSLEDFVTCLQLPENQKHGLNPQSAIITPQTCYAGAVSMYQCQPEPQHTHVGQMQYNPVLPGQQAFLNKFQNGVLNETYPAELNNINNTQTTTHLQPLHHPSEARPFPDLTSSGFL

Row | SMILES | EC50 [1] | EC50 [2, 7] | other results
1 | Cc1ccc(S(=O)(=O)n2c(Cc3c[nH]c4cccc(C)c34)c(C)c3ccccc32)cc1 | 2.6 µM | – | –
2 | COc1ccc(Cc2c(C)c3ccccc3n2S(=O)(=O)c2ccc(C)cc2)c(OC)c1 | 2.9 µM | – | IC50 [3]: 1.1 µM
3 | Brc1ccc2[nH]cc(Cc3cc4ccccc4[nH]3)c2c1 [Compound 2351377823] | 6.8 µM | – | –
4 | Cc1ccc(S(=O)(=O)n2c(Cc3cn(C)c4ccccc34)c(C(C)C)c3ccccc32)cc1 | – | – | IC50 [3]: 1.1 µM
5 | Clc1cc2c(cc1Cl)Oc1cc(Cl)c(Cl)cc1O2 [dioxin, 2,3,7,8-tetrachlorodibenzo-p-dioxin] | – | – | half-life (metabolic stability) [4]: 7-10 years
6 | Clc1ccc2[nH]cc(Cc3cc4ccccc4[nH]3)c2c1 [Compound 2351377819] | 14.8 µM | – | IC50 [3]: 10 µM
7 | Clc1cccc2c(Cc3cc4ccccc4[nH]3)c[nH]c12 [Compound 2351377820] | 7.2 µM | – | IC50 [3]: 2.8 µM
8 | Cc1ccc(S(=O)(=O)n2c(Cc3[nH]c4ccccc4c3CC#N)c(C)c3ccccc32)cc1 | – | – | IC50 [5]: 3.1 µM; IC50 [6]: > 30 µM
9 | c1ccc2[nH]c(Cc3c[nH]c4ccccc34)cc2c1 [6′, 3-((1H-indol-2-yl)methyl)-1H-indole] | – | 0.215 ± 0.46 µM | –
10 | O=Cc1c(Cc2c[nH]c3ccccc23)[nH]c2ccccc12 [Compound 6, 2-((1H-indol-3-yl)methyl)-1H-indole-3-carbaldehyde, reference compound] | – | 0.27 ± 0.1 µM | –
11 | Cn1cc(Cc2cc3ccccc3[nH]2)c2ccccc21 [Compound 2351377824] | – | – | IC50 [3]: 17.9 µM; EC50 ([2]; Table 5, read-out: AhR, EC50): 0.09 µM
12 | Cc1ccc(S(=O)(=O)n2c(COC(C)C)c(C)c3ccccc32)cc1 | 7.3 µM | – | –

Further lines, with some results ahead:

Row | EC50 [1] | EC50 [2, 7] | SMILES | other results
13 | – | 0.094 ± 0.27 µM | COc1ccc2[nH]cc(Cc3cc4ccccc4[nH]3)c2c1 [Compound 10c] | –
14 | – | 0.32 ± 0.1 µM | O=Cc1c(Cc2c[nH]c3c(Cl)cccc23)[nH]c2ccccc12 [Compound 11b] | –
15 | – | 0.23 ± 0.1 µM | COc1ccc2[nH]cc(Cc3[nH]c4ccccc4c3C=O)c2c1 [Compound 11c] | –
16 | – | 0.093 ± 0.15 µM | O=Cc1c(Cc2c[nH]c3ccc(Cl)cc23)[nH]c2ccccc12 [Compound 11a] | increase of signal over DMSO treatment [2]: 5 fold
17 | – | 0.055 ± 0.03 µM | Cn1cc(Cc2[nH]c3ccccc3c2C=O)c2ccccc21 [Compound 11d] | EC50 value relative to that of malassezin ([2]; EROD assay, HepG2 cells): about five; increase of signal over DMSO treatment [2]: 6 fold
18 | – | 0.086 ± 0.04 µM | Cn1cc(Cc2cc3ccccc3[nH]2)c2ccccc21 [Compound 10d] | –

— patent US9969686B2, “Synthesis of diindolylmethanes and indolo[3,2-b]carbazoles, compounds formed thereby, and pharmaceutical compositions containing them” (Wisconsin Alumni Research Foundation, priority 2014, dated 2018)
